Data published in ChEMBL document CHEMBL1127933, “Synthesis and biological evaluation of the potent isoxazolidinyl angiotensin II receptor antagonist CL332,877 and its enantiomers” (Bioorg Med Chem Lett, 1994).

Columns and labels:
Rattus norvegicus [1] = experiment: Change in mean arterial blood pressure in conscious renin dependent […] rats 1 mg/kg of oral dose after 5 hr; format: functional
[2] = target: T1, Type-1 angiotensin II receptor (Bos taurus, UniProt P25104); experiment: Binding affinity expressed as inhibitory concentration towards bovine adrenal cortex angiotensin II receptor was measured; format: tissue-based
T1 sequence (P25104 whole entry): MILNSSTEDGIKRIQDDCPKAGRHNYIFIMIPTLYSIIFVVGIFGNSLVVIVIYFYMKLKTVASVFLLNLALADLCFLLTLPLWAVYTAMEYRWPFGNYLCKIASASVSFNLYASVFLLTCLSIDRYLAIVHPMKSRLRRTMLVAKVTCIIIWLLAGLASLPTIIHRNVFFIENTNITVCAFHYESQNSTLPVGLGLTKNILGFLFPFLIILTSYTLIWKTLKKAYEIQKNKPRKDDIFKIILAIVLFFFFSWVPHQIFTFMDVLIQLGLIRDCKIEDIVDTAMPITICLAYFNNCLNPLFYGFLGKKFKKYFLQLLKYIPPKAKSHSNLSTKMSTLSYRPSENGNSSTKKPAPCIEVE

Angiotensin II receptor [3] = target: T2, Angiotensin II receptor (Rattus norvegicus, UniProt P29089+P25095+P35351); experiment: Binding affinity expressed as inhibitory concentration against angiotensin II receptor of rat adrenal cortex; format: tissue-based
T2 sequence (P29089 whole entry): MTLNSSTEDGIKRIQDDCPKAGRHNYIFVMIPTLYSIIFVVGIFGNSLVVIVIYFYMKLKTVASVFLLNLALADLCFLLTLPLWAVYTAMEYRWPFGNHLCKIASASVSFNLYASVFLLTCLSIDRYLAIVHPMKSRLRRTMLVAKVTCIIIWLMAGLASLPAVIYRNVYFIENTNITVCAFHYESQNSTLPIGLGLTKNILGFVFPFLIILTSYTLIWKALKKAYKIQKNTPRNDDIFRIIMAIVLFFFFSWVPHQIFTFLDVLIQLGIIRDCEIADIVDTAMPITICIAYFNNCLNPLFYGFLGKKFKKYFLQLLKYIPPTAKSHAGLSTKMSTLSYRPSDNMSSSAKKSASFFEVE
T2 sequence (P25095 whole entry): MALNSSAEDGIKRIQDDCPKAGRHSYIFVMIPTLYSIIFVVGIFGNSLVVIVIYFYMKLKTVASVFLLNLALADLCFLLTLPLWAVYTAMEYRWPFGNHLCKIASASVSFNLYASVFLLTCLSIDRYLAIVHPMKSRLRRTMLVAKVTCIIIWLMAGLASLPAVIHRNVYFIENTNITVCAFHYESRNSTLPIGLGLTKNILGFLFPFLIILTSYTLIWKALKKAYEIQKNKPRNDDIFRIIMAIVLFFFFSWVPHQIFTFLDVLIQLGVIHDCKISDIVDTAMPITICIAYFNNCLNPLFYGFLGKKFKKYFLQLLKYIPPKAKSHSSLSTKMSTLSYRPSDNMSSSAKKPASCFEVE
T2 sequence (P35351 whole entry): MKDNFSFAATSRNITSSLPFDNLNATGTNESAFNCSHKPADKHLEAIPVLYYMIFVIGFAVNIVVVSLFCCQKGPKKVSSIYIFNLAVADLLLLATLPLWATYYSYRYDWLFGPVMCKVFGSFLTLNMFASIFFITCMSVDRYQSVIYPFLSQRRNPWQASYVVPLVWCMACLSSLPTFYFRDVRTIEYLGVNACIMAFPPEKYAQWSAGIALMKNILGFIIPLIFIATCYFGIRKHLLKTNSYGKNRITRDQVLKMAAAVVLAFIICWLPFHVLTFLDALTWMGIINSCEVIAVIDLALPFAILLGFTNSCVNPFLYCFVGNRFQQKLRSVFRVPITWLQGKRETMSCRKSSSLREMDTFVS

Rattus norvegicus [4] = experiment: Percent Inhibition of AII vasopressor response in SHR at 1 mg/kg oral dose in hypertensive rats after 5 h; format: functional
[5] = target: T1, Type-1 angiotensin II receptor; experiment: Compound was tested for in vitro for AII receptor antagonistic activity in bovine adrenal cortex.; format: functional, tissue-based
Rattus norvegicus [6] = experiment: Tested for […] in the […] rat at 3 mg/kg of oral dose; […]; format: functional, organism-based; design: dose 3 mg/kg
Rattus norvegicus [7] = experiment: Decrease in mean arterial blood pressure in aorta coated rats 3 mg/kg of oral dose after 4 hr; format: functional
Angiotensin II receptor [8] = target: T2, Angiotensin II receptor; experiment: Binding affinity expressed as inhibitory concentration against angiotensin II of rat adrenal cortex; format: tissue-based

CCCCc1nc2ccc([C@@]3(C)C[C@@H]4CCCN4O3)cc2c(=O)n1Cc1ccc(-c2ccccc2-c2nnn[n-]2)cc1.[Na+]
Change in BP (Rattus norvegicus [1]): -3 mmHg | IC50 [2]: 77 nM | IC50 (Angiotensin II receptor [3]): 26 nM | inhibition in vivo at 1 mg/kg (Rattus norvegicus [4]): -10%

CCCCc1nc2ccc(C(C)(O)C[C@H]3CCCN3)cc2c(=O)n1Cc1ccc(-c2ccccc2-c2nnn[nH]2)cc1 (stereo not given in full)
IC50 [5]: 3.5 nM

CCCCc1nc2ccc(C(C)(O)C[C@H]3CCCN3)cc2c(=O)n1Cc1ccc(-c2ccccc2-c2nn[nH]n2)cc1 (stereo not given in full)
Activity (Rattus norvegicus [6]): Weak activity | Change in BP (Rattus norvegicus [7]): 32 mmHg

CCCCc1nc2ccc([C@]3(C)C[C@H]4CCCN4O3)cc2c(=O)n1Cc1ccc(-c2ccccc2-c2nn[n-]n2)cc1.[Na+] (stereo in doubt; 1a)
Change in BP (Rattus norvegicus [1]; 1 mg/kg): 0 mmHg | IC50 [2]: 26 nM | IC50 (Angiotensin II receptor [8]): 17 nM

CCCCc1nc2ccc([C@]3(C)C[C@H]4CCCN4O3)cc2c(=O)n1Cc1ccc(-c2ccccc2-c2nn[n-]n2)cc1.[Na+] (stereo in doubt; 14)
Change in BP (Rattus norvegicus [1]; 1 mg/kg): -4 mmHg | IC50 [2]: 38 nM | IC50 (Angiotensin II receptor [3]): 17 nM | inhibition in vivo at 1 mg/kg (Rattus norvegicus [4]): 40%

CCc1nc2c(C)cc(C)nc2n1Cc1ccc(-c2ccccc2-c2nnn[nH]2)cc1 [L-158809]
IC50 [5]: 27 nM
